Test results reported in patent US20170334852A1, “CATIONIC LIPID” (Eisai R&D Management Co., Ltd., priority 2014, published 2017).

Tests used:
[1] = Particle diameter on storage in sealed vial at 4° C., analysis (7); format: physicochemical; conditions: lipid complex stored for a certain period
Experimental: In the compositions of Examples 46 to 52, each composition was stored in a sealed vial at 4° C. and the particle diameter (Z-average and polydispersity index) before the strorage, after 3 months from the storage and after 6 months from the storage was measured in the same manner as that for the composition of Example 29.

[2] = Particle diameter after mixing, PBS dialysis and storage at 4° C., analysis (9); format: physicochemical; conditions: storage period, compared to the composition of Comparative Example 3
Experimental: In the compositions of Examples 53 and 54 and Comparative Example 3, the particle diameter (Z-average and polydispersity index) was measured immediately after the lipid complex was generated by mixing the siRNA diluent and the lipid solution in the preparation of each composition, after the lipid complex was dialyzed into PBS, and after storage in the sealed vial at 4° C. for 2 months and 6 months, using a particle diameter-measuring device (trade name “Zetasizer Nano ZS”, manufactured by Malvern Instruments Ltd.).

| Compound | Increase in particle diameter of the lipid complex during storage (in words) [1] | Increase in particle diameter of the lipid complex during storage (in words) [2] |
| --- | --- | --- |
| CCCCCCCCCCC(CCCCCCCCC(=O)OCC(CCC)CC(CCC)CCC)OC(=O)C1CCN(C)CC1 (centres unmarked) [YS-125, 1-((2,4-dipropylheptyl)oxy)-1-oxoicosane-10-yl-1-methylpiperidine-4-carboxylate] | stability is high |  |
| CCCCCCCCCCC(CCCCCCCCC(=O)OCCC(CCCCC)CCCCC)OC(=O)C1CCN(C)CC1 (centres unmarked) [YS-124, 1-oxo-1-((3-pentyloctyl)oxy)icosane-10-yl-1-methylpiperidine-4-carboxylate] | stability is high | an increase in particle diameter of the lipid complex was suppressed |
| CCCCCCCCCCC(CCCCCCCCC(=O)OCC(CCCC)CCCCCC)OC(=O)C1CCN(C)CC1 (centres unmarked) [YS-120, 1-((2-butyloctyl)oxy)-1-oxoicosane-10-yl-1-methylpiperidine-4-carboxylate] | stability is high | an increase in particle diameter of the lipid complex was suppressed |
| CCCCCCCCCCC(CCCCCCCCC(=O)OC/C=C\CC(CCC)CCCC)OC(=O)C1CCN(C)CC1 (centres unmarked) [YS-123, (Z)-1-oxo-1-((5-propylnon-2-en-1-yl)oxy)icosane-10-yl-1-methylpiperidine-4-carboxylate] | stability is high |  |
| CCCCCCCCCCC(CCCCCCCCC(=O)OCCC(CCC)C(CCC)CCC)OC(=O)C1CCN(C)CC1 (centres unmarked) [YS-126, 1-((3,4-dipropylheptyl)oxy)-1-oxoicosane-10-yl-1-methylpiperidine-4-carboxylate] | stability is high |  |
| CCCCC/C=C\C(CCCC)COC(=O)CCCCCCCCC(CCCCCCCCCC)OC(=O)C1CCN(C)CC1 (centres unmarked) [YS-122, (Z)-1-((2-butylnon-3-en-1-yl)oxy)-1-oxoicosane-10-yl-1-methylpiperidine-4-carboxylate] | stability is high |  |
